Test results from ChEMBL document CHEMBL1201862, “PubChem BioAssay data set” (2004).
Calls of active or inactive are those of the source.

How the values were obtained:
INS1 = assay: INS-1E survival protection against cytokine death – cell-based, luminescence, retest, dose response (AID 449756); assay type: functional; conditions: Rattus norvegicus;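 note: cell death triggered by IL-1 beta plus TNF-alpha plus IFN-gamma mixture; protective hits raise ATP signal compared with cytokine alone wells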
H9c2 = assay: cells; assay type: functional, cell-based; conditions: Rattus norvegicus, H9c2, Myocardium;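 note: confirmatory concentration-response retest of ultra-high-throughput screening hits for modulation of myocardial damage; cell death induced by hydrogen peroxide oxidative stress; compound pretreatment for 60 min then peroxide exposure for 2 h; potency is for protecting the cells against peroxide damage rather than for killing them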
Streptokinase A = molecular target: T1, Streptokinase A (Streptococcus pyogenes serotype M1, UniProt P10520); assay: viability-normalized secreted streptokinase activity reduction – plasminogen activation absorbance, OD405, dose response (AID 1914); assay type: functional, Streptococcus pyogenes M1 GAS;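 note: secreted streptokinase activity via plasminogen activation per viability signal from cell pellet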
T1 sequence (P10520 whole entry): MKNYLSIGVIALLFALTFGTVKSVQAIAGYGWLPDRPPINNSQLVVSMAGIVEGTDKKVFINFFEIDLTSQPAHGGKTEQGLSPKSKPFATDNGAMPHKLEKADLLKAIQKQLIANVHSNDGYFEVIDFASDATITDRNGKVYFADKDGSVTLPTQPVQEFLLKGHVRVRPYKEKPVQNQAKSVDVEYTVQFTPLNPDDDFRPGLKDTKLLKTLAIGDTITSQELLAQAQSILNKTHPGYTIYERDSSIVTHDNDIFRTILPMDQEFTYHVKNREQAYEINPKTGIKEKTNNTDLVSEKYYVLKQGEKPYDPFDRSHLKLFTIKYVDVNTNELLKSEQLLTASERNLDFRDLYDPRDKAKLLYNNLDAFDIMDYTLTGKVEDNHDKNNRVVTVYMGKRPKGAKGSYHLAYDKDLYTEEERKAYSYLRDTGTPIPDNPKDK

[1] = molecular target: T2, Corticotropin-releasing factor receptor 2/Corticotropin-releasing factor-binding protein (Homo sapiens, UniProt P24387+Q13324); assay: Dose Response confirmation of uHTS hits for small molecule antagonists of the CRF-binding protein and CRF-R2 receptor complex.; assay type: functional; conditions: read-out: IC50_Mean
T2 sequence (Q13324 whole entry): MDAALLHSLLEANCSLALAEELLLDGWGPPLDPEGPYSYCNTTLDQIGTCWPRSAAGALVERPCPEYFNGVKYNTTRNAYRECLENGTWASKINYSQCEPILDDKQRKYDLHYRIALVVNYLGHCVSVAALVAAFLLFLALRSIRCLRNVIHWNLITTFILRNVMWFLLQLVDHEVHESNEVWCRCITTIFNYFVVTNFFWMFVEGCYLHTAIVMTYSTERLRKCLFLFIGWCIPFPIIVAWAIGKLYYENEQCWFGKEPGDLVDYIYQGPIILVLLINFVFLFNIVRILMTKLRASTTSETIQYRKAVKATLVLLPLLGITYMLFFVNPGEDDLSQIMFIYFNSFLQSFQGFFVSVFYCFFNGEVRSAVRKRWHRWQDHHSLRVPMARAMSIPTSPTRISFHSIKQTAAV
T2 sequence (P24387 whole entry): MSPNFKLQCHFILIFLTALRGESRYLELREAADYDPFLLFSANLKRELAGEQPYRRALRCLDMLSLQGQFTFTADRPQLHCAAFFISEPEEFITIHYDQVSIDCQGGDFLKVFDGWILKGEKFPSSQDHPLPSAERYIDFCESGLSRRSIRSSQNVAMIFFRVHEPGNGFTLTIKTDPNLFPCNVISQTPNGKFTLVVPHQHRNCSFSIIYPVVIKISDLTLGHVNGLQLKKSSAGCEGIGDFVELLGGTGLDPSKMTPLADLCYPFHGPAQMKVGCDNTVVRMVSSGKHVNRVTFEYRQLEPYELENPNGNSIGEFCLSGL

[2] = system: Streptococcus sp. 'group A'; assay: Streptococcus pyogenes SK(-)GAS viability under kanamycin – luminescence, BacTiterGlo, confirmation, counter-screen for streptokinase expression inhibitor project, dose response (AID 1900); assay type: functional, organism-based
Streptococcus = assay: GAS UMAA2166 growth inhibition – luminescence, BacTiterGlo, counter-screen for streptokinase expression inhibitor project, dose response (AID 1915); assay type: functional, organism-based;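 note: potency for reduction of bacterial viability or growth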
[3] = molecular target: T2, Corticotropin-releasing factor receptor 2/Corticotropin-releasing factor-binding protein; assay: activators of CRF receptor 2 with binding protein – uHTS hits, confirmation (AID 602473); assay type: functional; conditions: read-out: EC50_Mean
Vero = assay: cells; assay type: functional; conditions: Chlorocebus sabaeus
cells [4] = assay type: functional, cell-based
cells [5] = assay type: functional, cell-based; remark: listed apart in the source
Protein RecA = molecular target: T3, Protein RecA (Mycobacterium tuberculosis, UniProt P9WHJ3); assay: Fluorescence Cell-Free Homogeneous Dose Retest to Identify Inhibitors of RecA-Intein Splicing Activity. [Related pubchem assays (depositor defined):AID2097, AID2223, AID489010, AID492950]; assay type: functional
T3 sequence (P9WHJ3 whole entry): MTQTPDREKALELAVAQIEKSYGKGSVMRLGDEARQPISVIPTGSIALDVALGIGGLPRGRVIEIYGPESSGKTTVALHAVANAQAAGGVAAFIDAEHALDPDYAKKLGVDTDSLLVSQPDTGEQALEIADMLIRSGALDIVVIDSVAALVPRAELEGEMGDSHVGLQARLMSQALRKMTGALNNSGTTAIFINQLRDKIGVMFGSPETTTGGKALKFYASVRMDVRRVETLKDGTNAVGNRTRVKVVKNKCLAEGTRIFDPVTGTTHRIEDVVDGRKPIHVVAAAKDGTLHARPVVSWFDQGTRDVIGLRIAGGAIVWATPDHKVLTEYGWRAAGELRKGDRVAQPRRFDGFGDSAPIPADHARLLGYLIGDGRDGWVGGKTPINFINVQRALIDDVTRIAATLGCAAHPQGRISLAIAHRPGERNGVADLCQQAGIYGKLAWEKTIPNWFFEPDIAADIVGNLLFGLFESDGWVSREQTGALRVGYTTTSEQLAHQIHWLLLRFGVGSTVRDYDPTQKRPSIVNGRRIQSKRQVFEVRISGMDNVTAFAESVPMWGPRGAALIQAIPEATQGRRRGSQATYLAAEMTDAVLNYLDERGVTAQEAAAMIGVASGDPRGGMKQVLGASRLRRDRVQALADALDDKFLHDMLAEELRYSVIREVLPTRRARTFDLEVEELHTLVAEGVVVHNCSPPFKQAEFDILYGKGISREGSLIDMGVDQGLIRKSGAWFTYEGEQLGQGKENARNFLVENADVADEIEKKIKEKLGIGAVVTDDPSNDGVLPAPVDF

[6] = molecular target: T4, Replicative DNA helicase DnaB (Mycobacterium tuberculosis, UniProt P9WMR3); assay: DnaB intein splicing inhibitors, dose response, biochemical, cell-free fluorescence (AID 449749); assay type: functional
T4 sequence (P9WMR3 whole entry): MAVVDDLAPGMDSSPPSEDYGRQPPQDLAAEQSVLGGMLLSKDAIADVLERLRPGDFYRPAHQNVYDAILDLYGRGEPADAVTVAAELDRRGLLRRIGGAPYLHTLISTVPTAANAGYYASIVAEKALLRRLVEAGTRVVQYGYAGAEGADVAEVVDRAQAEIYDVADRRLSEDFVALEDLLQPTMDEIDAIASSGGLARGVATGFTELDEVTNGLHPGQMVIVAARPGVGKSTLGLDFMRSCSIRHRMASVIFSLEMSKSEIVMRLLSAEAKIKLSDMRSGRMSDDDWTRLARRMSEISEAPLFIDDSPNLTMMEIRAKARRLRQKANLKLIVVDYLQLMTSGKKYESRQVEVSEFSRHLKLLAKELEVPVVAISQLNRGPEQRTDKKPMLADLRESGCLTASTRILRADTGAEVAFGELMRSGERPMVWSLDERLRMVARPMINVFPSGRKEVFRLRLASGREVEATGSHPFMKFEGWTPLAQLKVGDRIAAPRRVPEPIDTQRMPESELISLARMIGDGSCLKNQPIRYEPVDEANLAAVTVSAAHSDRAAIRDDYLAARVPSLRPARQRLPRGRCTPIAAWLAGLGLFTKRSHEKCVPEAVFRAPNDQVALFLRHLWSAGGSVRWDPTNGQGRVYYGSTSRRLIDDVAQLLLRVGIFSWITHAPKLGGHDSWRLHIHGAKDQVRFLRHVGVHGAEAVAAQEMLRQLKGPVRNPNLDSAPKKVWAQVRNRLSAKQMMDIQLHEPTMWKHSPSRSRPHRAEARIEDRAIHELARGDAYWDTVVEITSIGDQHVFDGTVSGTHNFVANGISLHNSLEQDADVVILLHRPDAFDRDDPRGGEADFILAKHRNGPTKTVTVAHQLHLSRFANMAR

Cytochrome P450 2D6 = Cytochrome P450 2D6 (Homo sapiens, UniProt P10635);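 note: CYP2D6 member of a cytochrome P450 panel assay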
Chain of Cytochrome P450 2D6 (P10635 whole entry): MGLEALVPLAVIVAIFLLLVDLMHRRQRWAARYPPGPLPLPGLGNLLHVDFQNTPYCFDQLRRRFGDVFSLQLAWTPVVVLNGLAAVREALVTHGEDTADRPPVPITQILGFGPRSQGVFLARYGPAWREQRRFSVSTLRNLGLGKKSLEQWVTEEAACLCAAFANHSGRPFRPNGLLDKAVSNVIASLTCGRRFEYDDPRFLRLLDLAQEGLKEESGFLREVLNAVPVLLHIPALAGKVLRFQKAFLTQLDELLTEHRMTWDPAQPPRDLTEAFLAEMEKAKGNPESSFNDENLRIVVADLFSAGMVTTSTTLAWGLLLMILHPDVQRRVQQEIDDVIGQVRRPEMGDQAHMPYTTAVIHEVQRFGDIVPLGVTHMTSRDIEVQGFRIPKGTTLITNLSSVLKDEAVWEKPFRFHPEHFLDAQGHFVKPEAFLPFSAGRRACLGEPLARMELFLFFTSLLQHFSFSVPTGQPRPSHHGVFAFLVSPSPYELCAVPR

[7] = microbe, parasite or virus in culture; assay type: functional; conditions: Mycobacterium tuberculosis
[8] = molecular target: T5, Ubiquitin-conjugating enzyme E2 N (Homo sapiens, UniProt P61088); assay type: functional;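 note: Dose-response confirmation in a TR-FRET assay detecting UBC13-driven polyubiquitin chain formation, inhibition measured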
T5 sequence (P61088 whole entry): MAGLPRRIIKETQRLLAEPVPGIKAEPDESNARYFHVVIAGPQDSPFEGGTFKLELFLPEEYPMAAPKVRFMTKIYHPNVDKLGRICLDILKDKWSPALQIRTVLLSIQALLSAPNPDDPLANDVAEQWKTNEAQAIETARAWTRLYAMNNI

Cytochrome P450 3A4 = Cytochrome P450 3A4 (Homo sapiens, UniProt P08684);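 note: CYP3A4 tested as one member of a cytochrome P450 panel screen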
Chain of Cytochrome P450 3A4 (P08684 whole entry): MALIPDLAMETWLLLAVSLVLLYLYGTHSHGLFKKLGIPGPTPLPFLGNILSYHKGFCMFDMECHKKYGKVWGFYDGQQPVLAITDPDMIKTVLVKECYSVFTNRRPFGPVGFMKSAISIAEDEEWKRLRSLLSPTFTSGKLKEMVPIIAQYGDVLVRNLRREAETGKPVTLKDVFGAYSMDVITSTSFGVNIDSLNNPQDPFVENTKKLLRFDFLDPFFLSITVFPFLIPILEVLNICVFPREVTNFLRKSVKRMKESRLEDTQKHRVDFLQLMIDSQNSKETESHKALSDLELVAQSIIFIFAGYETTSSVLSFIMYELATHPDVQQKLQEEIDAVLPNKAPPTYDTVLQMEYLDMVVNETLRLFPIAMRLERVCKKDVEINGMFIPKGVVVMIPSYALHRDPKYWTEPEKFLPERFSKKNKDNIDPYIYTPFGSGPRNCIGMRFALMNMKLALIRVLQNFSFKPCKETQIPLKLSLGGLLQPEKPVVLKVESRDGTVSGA

With CCCNC(=O)c1c(N)n(-c2cccc(OC)c2)c2nc3ccccc3nc12 the AC50 (INS1) was 36.8 µM (active) and the IC50 (H9c2) was 28.5 µM (active).

For O=C(CSc1nnc(Cc2cccs2)n1CCc1ccccc1)N1CCCc2ccccc21, the IC50 (H9c2) was > 79 µM (inactive).

In the case of Oc1c(Cl)cc(Cl)cc1/C=N/c1ccc(N2CCOCC2)cc1, the IC50 (H9c2) is reported as > 79 µM (inactive).

For NC(=O)c1nsc(C(=O)N(CCc2ccccc2)C(C(=O)NC2CCCC2)c2ccco2)c1N (centres undefined), the IC50 (H9c2) was > 79 µM (inactive).

With Cc1ccc(N=Nc2ccc(O)c(P(=O)(c3ccccc3)c3ccccc3)c2)cc1 the EC50 (Streptokinase A) was > 150 µM (not active), the IC50 [1] was > 47.1 µM (inactive) and the EC50 [2] was 3.58 µM (active). The EC50 (Streptococcus) was 110 µM (active), the EC50 [3] was > 53 µM (inactive) and the CC50 (Vero) was > 25 µM (active).

For CC(C)(C)NC(=O)COC(=O)c1ccc(Cl)nc1, the EC50 (cells [4]) was > 350 µM (not active) and the EC50 (cells [5]) was > 350 µM (not active).

For O=C(CN1C(=O)S/C(=C\C=C\c2ccccc2)C1=O)Nc1ccc(C(=O)O)cc1, the EC50 (Protein RecA) was > 380 µM (inactive) and the AC50 [6] was 177 µM (active).

In the case of COc1ccc(NC(=O)CNC(=O)Cc2cccc3ccccc23)c(OC)c1, the EC50 (cells [4]) is reported as > 350 µM (not active) and the EC50 (cells [5]) is reported as > 350 µM (not active).

For CN1CCN(Cc2nc(O)c3ccccc3n2)CC1, the IC50 (H9c2) was 24 µM (active).

With N#Cc1ccc(CN2CCC3(CC2)CCN(C(=O)c2cccc(F)c2)CC3)cc1 the AC50 (Cytochrome P450 2D6) was 12.6 µM (inconclusive).

In the case of COc1cc2c(cc1OC)C1(Nc3c-2c(-c2ccccc2)nn3-c2ccccc2)C(=O)Nc2ccccc21 (centres undefined), the CC50 [7] is reported as 10.4 µM (active).

In the case of O=C(C(=O)N1CCOCC1)c1cn(Cc2ccccc2)c2ccccc12, the IC50 [8] is reported as > 20 µM (inactive).

With O=C(N/N=C/c1ccc2c(c1)OCO2)c1ccc(NC(=O)c2ccccc2Cl)cc1 the IC50 (H9c2) was 9.19 µM (active).

With Cn1ncc(Cl)c1C(=O)Nc1nc2ccc(Cl)cc2s1 the EC50 (cells [4]) was 0.85 µM (active) and the EC50 (cells [5]) was > 350 µM (not active).

With COc1ccc(NC(=S)N2CCN(C(=O)c3ccccc3)CC2)cc1 the EC50 (cells [4]) was > 350 µM (not active) and the EC50 (cells [5]) was > 350 µM (not active).

For Cc1ccc(-n2nc(C)c3c2OC(N)=C(C#N)C3c2ccco2)cc1 (centres undefined), the AC50 (Cytochrome P450 3A4) was 17.8 µM (inconclusive), the EC50 (Protein RecA) was 6.22 µM (inconclusive) and the AC50 [6] was 35.1 µM (inconclusive).

With CC(C)C1Nc2ccc(C(=O)N3CCN(c4ccccn4)CC3)cc2NC1=O (centres undefined) the IC50 (H9c2) was 21.2 µM (active).

In the case of CCOC(=O)C1=C(c2ccccc2)N=c2s/c(=C\c3ccco3)c(=O)n2C1c1cccs1 (centres undefined), the AC50 (Cytochrome P450 3A4) is reported as 22.4 µM (inconclusive) and the AC50 (Cytochrome P450 2D6) is reported as 15.8 µM (inconclusive).

For COc1cc(C(c2c(C)n[nH]c2O)c2c(C)n[nH]c2O)cc(Cl)c1O, the EC50 (Protein RecA) was 0.453 µM (active) and the AC50 [6] was 2.6 µM (active).

With COc1cc(SC)ccc1C(=O)Nc1ccc(C)cc1C the EC50 (cells [4]) was 5.81 µM (active) and the EC50 (cells [5]) was > 350 µM (not active).

In the case of CC(=O)N1CCC2(CCCN(c3ncccn3)C2)CC1, the AC50 (Cytochrome P450 2D6) is reported as 31.6 µM (inconclusive).

With Cc1nc2ccccc2c2c1C(=O)N(C)C2=O the EC50 (Protein RecA) was 0.794 µM (active) and the AC50 [6] was 4.71 µM (active).

In the case of Cc1cc(C)cc(C(=O)Nc2ccc(NC(=O)c3cccs3)cc2)c1, the IC50 (H9c2) is reported as > 79 µM (inactive).

With O=C(CCc1nc(O)c2ccccc2n1)N1CCN(c2ccc(F)cc2)CC1 the IC50 (H9c2) was > 79 µM (inactive).

In the case of Cc1cc(C)cc(N(CC(=O)NCCSc2ccccn2)S(=O)(=O)c2ccccc2)c1, the AC50 (Cytochrome P450 2D6) is reported as 11.2 µM (inconclusive).

For C=CCn1c(Cc2cccs2)nnc1SCC(=O)Nc1ccc(C(=O)OCC)cc1, the CC50 [7] was > 40 µM (active).

In the case of CCOc1ccc(N(C(=O)c2snc(C(N)=O)c2N)C(C(=O)NC2CCCC2)C(C)C)cc1 (centres undefined), the IC50 [8] is reported as > 20 µM (inactive).
